Results: patent publication US20250099420A1, “SMALL MOLECULE MODULATORS OF GPR139 COMPLEX” (University of Florida Research Foundation, Incorporated, priority 2022, published 2025)

Experiments:
[1] = target: T1, GPR139 (Homo sapiens, UniProt Q6DWJ6); assay: GPR139 Antagonist titration assay (calcium detection, HEK-GPR139 cells, vs EC80 of S-JNJ-63533054); settings: for GPR139 Antagonist Activity Averaged Max % Response (±St. Dev.): activity relative to known control; for GPR139 Antagonist Activity Lipophilic Efficiency (logD): based on logD; for GPR139 Antagonist Activity Lipophilic Efficiency (logP): based on logP; for GPR139 Antagonist Activity Hill Slope: fitted dose-response curve
T1 sequence (Q6DWJ6 1-353): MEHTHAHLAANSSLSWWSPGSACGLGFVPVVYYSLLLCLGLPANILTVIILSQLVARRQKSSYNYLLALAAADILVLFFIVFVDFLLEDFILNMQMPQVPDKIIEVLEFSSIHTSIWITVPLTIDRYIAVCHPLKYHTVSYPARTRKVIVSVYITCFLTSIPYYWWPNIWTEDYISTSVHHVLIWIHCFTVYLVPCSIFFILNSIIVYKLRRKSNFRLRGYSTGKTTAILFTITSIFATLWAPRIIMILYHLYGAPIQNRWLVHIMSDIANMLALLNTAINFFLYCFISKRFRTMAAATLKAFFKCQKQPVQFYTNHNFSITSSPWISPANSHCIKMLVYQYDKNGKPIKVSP
Description: GPR activity was assessed using a calcium detection assay. GPR139 agonists stimulate an increase in intracellular calcium in HEK-GPR139 cells. Agonists increase the release of intracellular calcium, while antagonists decrease the release of intracellular calcium, as compared to an EC80 stimulation of the know agonist S-JNJ-63533054. The positive control for the agonist mode was cells treated with EC100 of known agonist S-JNJ-63533054. Negative control samples were treated with DMSO. The antagonist high control in cells was EC80 of S-JNJ-63533054+IC100 S-JNJ-3792165, while cells were treated with EC80 of S-JNJ-63533054+DMSO for the low control. Intracellular calcium was measured using Calcium 5.
HEK cells were transfected the DNA encoding GPR139 and incubated for 24 hours. 3000 cells/well in 3 μL HEPES and 1% DMSO were seeded into 1536-well plates. 3 μL Calcium 5 was then added to each well and cells were incubated for 60 min. at 37° C. in 5% CO2 and 95% relative humidity. Cells were pretreated with 50 nL DMSO (5 min. at room temperature in the dark) to stabilize response and desensitize cells to DMSO. A 5 second basal read was recorded and compounds in 30 nL were added to the cells, followed by a 150 second read.
B. Antagonist Mode: The “High Control” represented wells containing cells with GPR139+Antagonist IC100+Agonist EC80. “Low Control” represented wells containing cells with GPR139 with EC100 Agonist. “0% control” and sample field represented wells containing cells with GPR139 with EC80 Agonist with DMSO or compounds. The Z′ and S:B for this assay were calculated using the High Control and Low Control wells.
(§1) The HEK parental counterscreen utilized the same cells but not transfected with the plasmid. Acetylcholine was used in place of GPR139 agonist as the control compound. The cells were plated overnight, similar to the HEK antagonist counterscreen protocol.
The GPR139 Agonist and Antagonist titration assays employed the same reagents, protocols, and detection systems as the primary assays, but tested each as 10 point dose response starting at 676 nM concentration in triplicate with 1:3 dilutions. The HEK parental counterscreens utilized the same cells but not transfected with the plasmid. Acetylcholine was used in place of GPR139 agonist as the control compound. The cells were plated overnight, similar to the HEK antagonist counterscreen protocol.
(§2) For each test compound, percent activation was plotted against compound concentration. A four parameter equation describing a sigmoidal dose-response curve was then fitted with adjustable baseline using Assay Explorer software (Symyx Technologies Inc.).

[2] = system: parental HEK cells; assay: HEK parental Antagonist Counterscreen Assay (non-transfected cells, acetylcholine control); format: cell-based; settings: for EC50: Homo sapiens, HEK293, acetylcholine as control, scientific notation, molarity
Description: C. […] The HEK parental counterscreen utilized the same cells but not transfected with the plasmid. The agonist and antagonist modes were run the same way as the primary screen but acetylcholine was used in place of GPR139 agonist as the control compound.
The HEK parental counterscreen utilized the same cells but not transfected with the plasmid. The antagonist modes assays utilized the cells being plated in the 1536 well plate overnight in growth media prior to dye loading in PDL coated plates and acetylcholine was used in place of GPR139 agonist as the control compound.
as §1
The HEK parental counterscreens utilized the same cells but not transfected with the plasmid. Acetylcholine was used in place of GPR139 agonist as the control compound. The cells were plated overnight, similar to the HEK antagonist counterscreen protocol.
as §2

[3] = target: T1, GPR139; assay: GPR139 Agonist titration / agonist counterscreen assay (calcium detection, HEK-GPR139 cells); format: cell-based; design: expressed in transfected cells; host or cells: HEK Aequorin cells, Maxcyte transient transfection; settings: for Averaged Max % Response (±St. Dev.): activity relative to known control
Description: GPR activity was assessed using a calcium detection assay. […] Negative control samples were treated with DMSO. […] Intracellular calcium was measured using Calcium 5.

[4] = system: parental HEK cells; assay: HEK parental Agonist Counterscreen Assay (non-transfected cells); format: cell-based; settings: for Averaged Max % Response (±St. Dev.): activity relative to known control
Excerpt: The high control for the agonist counterscreen was Forskolin not acetylcholine.

[5] = agonist counterscreen of the antagonists
[6] = agonist counterscreen of the antagonists, scientific notation, molarity, read-out: GRP139 Agonist activity EC50
[7] = HEK Agonist Activity section of Table 4 (parental HEK counterscreen)
[8] = GPR139 Agonist Activity, based on logD
[9] = GPR139 Agonist Activity, based on logP
[10] = GPR139 Agonist Activity, fitted dose-response curve
[11] = GPR139 Agonist Activity, ligand efficiency
[12] = GPR139 Agonist Activity, values printed in E-notation without unit, read-out: EC50
[13] = GPR139 Agonist Activity, HEK-GPR139 cells, read-out: EC50

Row | Compound | EC50 [1] [µM] | GPR139 Antagonist Activity Ligand Efficiency [1] | GPR139 Antagonist Activity Averaged Max % Response (±St. Dev.) [1] [%] | GPR139 Antagonist Activity Lipophilic Efficiency (logD) [1] | GPR139 Antagonist Activity Lipophilic Efficiency (logP) [1] | GPR139 Antagonist Activity Hill Slope [1] | GRP139 Agonist activity Averaged Max % Response (±St. Dev.) [3, 5] [%] | EC50 [3, 6] [µM] | Lipophilic Efficiency (logD) ([4]; HEK Agonist Activity section) | Lipophilic Efficiency (logP) ([4]; HEK Agonist Activity section) | Averaged Max % Response (±St. Dev.) ([3]; GPR139 Agonist Activity) [%] | HEK antagonist activity Averaged Max % Response (±St. Dev.) [2] [%] | EC50 [2] [µM] | Averaged Max % Response (±St. Dev.) ([4]; HEK Agonist Activity section) [%] | other results
1 | O=C(CCC(=O)OCc1ccc(Br)cc1)Nc1ccc(F)cc1 [SR-01000259336] | 3.7 | 0.33 | 90.45 ± 2.75 | 1.62 | 1.62 | 1.05 | 6.87 ± 7.17 | > 14.1 |  |  |  | 26.21 ± 5.54 | > 14.1 |  | 
2 | CC(NC(=O)c1ccc2c(c1)N(Cc1ccccc1)C(=O)C[S+]2[O-])c1ccccc1 (stereo not drawn) [SR-01000129845] |  |  |  |  |  |  |  |  | 1.95 | 1.95 | 98.04 ± 26.06 |  |  | 8.19 ± 5.50 | EC50 [4, 7]: > 14.1 µM; Lipophilic Efficiency (logD) [3, 8]: 3.96; Lipophilic Efficiency (logP) [3, 9]: 3.96; Hill Slope [3, 10]: 1.01; Efficiency Ligand [3, 11]: 0.32; EC50 [3, 12]: 0.138 µM
3 | Cc1cc(NC(=O)Cn2ncc3c2-c2ccccc2OC3)no1 [SR-01000098884] |  |  |  |  |  |  |  |  | 3.22 | 3.22 | 75.62 ± 16.43 |  |  | 0.57 ± 13.32 | EC50 [4, 7]: > 14.1 µM; Efficiency Ligand ([3]; GPR139 Agonist Activity): 0.35; Hill Slope ([3]; GPR139 Agonist Activity): 0.72; Lipophilic Efficiency (logD) ([3]; GPR139 Agonist Activity): 4.12; Lipophilic Efficiency (logP) ([3]; GPR139 Agonist Activity): 4.12; EC50 [3, 13]: 1.8 µM
4 | Cc1cc(C(=O)CCC(=O)NNC(=O)CSc2nc3ccccc3s2)c(C)s1 [SR-01000070591] |  |  |  |  |  |  |  |  |  |  | 126.06 ± 10.32 |  |  |  | Lipophilic Efficiency (logD) ([4]; HEK Agonist Activity): 1.00; Lipophilic Efficiency (logP) ([4]; HEK Agonist Activity): 1.00; Averaged Max % Response (±St. Dev.) ([4]; HEK Agonist Activity): −5.74 ± 0.47%; EC50 ([4]; Homo sapiens, HEK293, HEK Agonist Activity, parental non-transfected HEK cells): > 14.3 µM; Lipophilic Efficiency (logD) [3, 8]: 4.02; Lipophilic Efficiency (logP) [3, 9]: 4.02; Hill Slope [3, 10]: 0.31; Efficiency Ligand [3, 11]: 0.39; EC50 [3, 12]: 0.0136 µM

Now from value to compound, other results behind:

Row | EC50 [1] [µM] | GPR139 Antagonist Activity Ligand Efficiency [1] | GPR139 Antagonist Activity Averaged Max % Response (±St. Dev.) [1] [%] | GPR139 Antagonist Activity Lipophilic Efficiency (logD) [1] | GPR139 Antagonist Activity Lipophilic Efficiency (logP) [1] | GPR139 Antagonist Activity Hill Slope [1] | GRP139 Agonist activity Averaged Max % Response (±St. Dev.) [3, 5] [%] | EC50 [3, 6] [µM] | Lipophilic Efficiency (logD) ([4]; HEK Agonist Activity section) | Lipophilic Efficiency (logP) ([4]; HEK Agonist Activity section) | Averaged Max % Response (±St. Dev.) ([3]; GPR139 Agonist Activity) [%] | Compound | HEK antagonist activity Averaged Max % Response (±St. Dev.) [2] [%] | EC50 [2] [µM] | Averaged Max % Response (±St. Dev.) ([4]; HEK Agonist Activity section) [%] | other results
5 | 0.98 | 0.37 | 82.02 ± 2.67 | 2.55 | 1.57 | 1.59 | 68.19 ± 17.63 | 9.1 |  |  |  | O=c1c(-c2ccc(Cl)cc2)c(C(F)(F)F)oc2cc(O)ccc12 [SR-01000438114] | 104.21 ± 5.67 | 4.2 |  | GRP139 Agonist activity Hill Slope [3, 5]: 1.01
6 | 5.9 | 0.39 | 70.81 ± 7.08 | 2.11 | 2.11 | 1.05 | 25.24 ± 7.47 | > 14.3 |  |  |  | N#CCC(=O)c1ccccc1Oc1ccc(F)cc1 [SR-01000308363] | 14.98 ± 11.31 | > 14.3 |  | 
7 | 2.2 | 0.27 | 58.56 ± 7.31 | −1.6E+0 | −1.6E+0 | 1.46 | 6.60 ± 4.93 | > 8.9 |  |  |  | Cc1cc(C)c(NC(=O)c2ccc(Br)cc2)c(C)c1NC(=O)c1ccc(Br)cc1 [SR-01000512383] | 33.99 ± 7.44 | > 8.9 |  | 
8 |  |  |  |  |  |  |  |  | 2.95 | 2.95 | 81.90 ± 12.88 | CS(=O)(=O)c1cccc(C(=O)NCCCN2CCc3ccccc32)c1 [SR-01000387617] |  |  | 2.04 ± 4.49 | EC50 ([4]; Homo sapiens, HEK293, HEK Agonist Activity section of Table 4 (parental HEK counterscreen)): > 14.1 µM; Efficiency Ligand ([3]; GPR139 Agonist Activity): 0.35; Hill Slope ([3]; GPR139 Agonist Activity): 0.75; Lipophilic Efficiency (logD) ([3]; GPR139 Agonist Activity): 4.28; Lipophilic Efficiency (logP) ([3]; GPR139 Agonist Activity): 4.28; EC50 [3, 13]: 0.661 µM
